# Target: T1, E. coli TEM-1 β-lactamase (Escherichia coli, UniProt P62593)
# T1 construct: made in house; host or cells: E. coli BL21(DE3); whole overnight culture used undiluted, not purified
# Assay: Drug screening: E166Cf fluorescence in presence of bacterial β-lactamase culture
# Assay type: biochemical
# Design: key: −: Decline in fluorescence signal (presence of beta-lactam hydrolysis); +: No decline in fluorescence signal (absence of beta-lactam hydrolysis)
# Settings: E. coli TEM-1 culture, undiluted; antibiotic 1.0×10^−4 M; E166Cf 1.2×10^−7 M
# Description: The use of the E166Cf enzyme in screening bacterial β-lactamases against various β-lactam antibiotics was investigated. The principle of our method is that when both E166Cf and bacterial β-lactamase are incubated with ‘β-lactamase-unstable’ antibiotics, the fluorescence of the E166Cf enzyme will be suppressed because of the greater catalytic efficiency of the bacterial enzyme. In contrast, when bacterial β-lactamases are screened against ‘β-lactamase-resistant’ antibiotics, the fluorescence of the E166Cf enzyme will be enhanced because of the poor hydrolytic activity of the bacterial enzyme. Thus, any β-lactam antibiotic that causes the labeled enzyme to increase its fluorescence intensity in the presence of bacterial β-lactamases can be used in clinical treatments.
# The TEM-1 β-lactamase was expressed in E. coli. BL21(DE3). Preparation of the TEM-1 β-lactamase was performed as follows. A bacterial strain was streaked on an agar plate containing 100 μg/ml ampicillin, and the plate was incubated at 37° C. for 24 h. A single bacterial colony from the plate was inoculated into 100 ml of sterilized LB broth (28 g/l) which was then incubated at 37° C. with shaking at 280 rpm overnight. After overnight incubation, the bacterial culture was harvested and stored at −20° C.
# Fluorescence measurements of the E166Cf enzyme in the presence of bacterial cultures and β-lactam antibiotics were performed on a FLUOstar microplate reader (BMG Labtechnologies) equipped with two sample injectors. Excitation and emission filters of 485 and 520 nm respectively were used. For B. cereus penPC β-lactamase, B. licheniformis penP β-lactamase and B. cereus β-lactamase II, the labeled enzymes were mixed with the bacterial cultures, and the mixtures were made up to 300 μl with 50 mM phosphate buffer (pH 7.0) in a 96-well microtiter plate (Corning Costar). For the purpose of comparison, B. subtilis cultures, which produced no β-lactamase, were set up as negative controls. For E. coli. TEM-1 β-lactamase, the labeled enzymes were mixed with the bacterial cultures without dilution. E. coli. cultures, which produced no β-lactamase, were set up as negative controls for comparison. The antibiotics were then added to the bacterial samples by the injectors.
# The results from the time-resolved fluorescence measurements of the labeled enzyme (1.2×10^−7 M) in the presence of various bacterial cultures and β-lactam antibiotics (1.0×10^−4 M) are shown in FIGS. 23 to 26.
# T1 sequence (P62593 24-286 limits assumed): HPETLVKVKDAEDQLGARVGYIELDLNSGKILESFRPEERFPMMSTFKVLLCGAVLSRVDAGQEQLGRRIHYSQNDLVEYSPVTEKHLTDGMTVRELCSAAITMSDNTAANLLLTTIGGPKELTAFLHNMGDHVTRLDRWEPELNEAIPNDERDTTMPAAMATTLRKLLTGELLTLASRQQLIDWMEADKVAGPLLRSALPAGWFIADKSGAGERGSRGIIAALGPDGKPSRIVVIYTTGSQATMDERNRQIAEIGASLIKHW
smiles,measurement,value
"CC1(C)S[C@@H]2[C@H](NC(=O)Cc3ccccc3)C(=O)N2[C@H]1C(=O)O [Penicillin G, penicillin G]",fluorescence signal of E166Cf (beta-lactam hydrolysis),−
